In general, GI50 refers to the concentration giving 50% growth inhibition.

Consider four compounds from ChEMBL document CHEMBL1201862, “PubChem BioAssay data set” (2004).

SMILES strings stand for the structures.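 Values below derive from 48-hour exposures of cells grown in 96-well plates, with endpoints linearly interpolated between the two concentrations bracketing the appropriate inhibition level. GI50 marks 50% less growth.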 Calls of active or inactive are those of the source. Cut-off read from the data, not from the text of the source: active = GI50 up to about 1.1 µM and inactive = higher.

Common to all, as to assay: DTP human tumour cell line panel, 48 h
Experiment [1] relates to 786-0.
Experiment [2] concerns DU-145.
Experiment [3] concerns HT-29.
Experiment [4] concerns M14.
The test system of experiment [5] is NCI-H226.
The subject of experiment [6] is NCI-H23.
Experiment [7] relates to OVCAR-3.
Experiment [8] deals with OVCAR-4.
The test system of experiment [9] is OVCAR-5.
Experiment [10] concerns SF-268.
The subject of experiment [11] is TK-10.
The subject of experiment [12] is UACC-62.
The test system of experiment [13] is CCRF-CEM.
The test system of experiment [14] is HCT-15.
The subject of experiment [15] is K562.
Experiment [16] concerns MOLT-4.
Experiment [17] concerns NCI-H460.
Experiment [18] concerns RXF 393.
Experiment [19] relates to SF-539.
For experiment [20], the system named is SR.

For the compound `Cc1ccsc1/C=N/Nc1cc(C)c2cccc(C)c2n1`, the GI50 was 24.4 µM (inactive) in [1]; > 100 µM (inactive) in experiment [2]; 4.14 µM (inactive) in experiment [3]; > 100 µM (inactive) in experiment [4]; > 100 µM (inactive) in experiment [5]; > 100 µM (inactive) in experiment [6]. Besides, the GI50 in experiment [7], in [8], in [9], in [10], in experiment [11] and in [12] was > 100 µM (inactive) in each case.

Regarding `c1csc(-c2csc(-c3ccsc3)c2)c1`, the GI50 was > 100 µM (inactive) in experiment [1]; > 100 µM (inactive) in [13]; above 100 µM in experiment [14]; > 100 µM (inactive) in [3]; > 100 µM (inactive) in experiment [15]; > 75.9 µM (inactive) in [4]. The GI50 in experiment [16] was 62.4 µM (inactive); in experiment [5], > 57.5 µM (inactive); in experiment [6], > 68.2 µM (inactive); in [17] it was > 100 µM (inactive); in [7], > 100 µM (inactive); in experiment [8] it was > 100 µM (inactive). Besides, the GI50 in [9] was > 100 µM (inactive); in experiment [18], > 46.9 µM (inactive); in experiment [10] it was > 100 µM (inactive); in experiment [19], > 55.5 µM (inactive); in experiment [20] it was 97.3 µM (inactive); in [11], > 100 µM (inactive). In experiment [12], the GI50 was > 100 µM (inactive).

Regarding `CC(C)N(C(=O)C12C3C4C5(C#N)C3C1(C#N)C5C42I)C(C)C` (centres undefined), the GI50 in experiment [1] is > 100 µM (inactive); in experiment [13], > 39.9 µM (inactive); in experiment [14], above 78.5 µM; in [3], > 100 µM (inactive); in experiment [15], > 42.2 µM (inactive); in experiment [4], > 100 µM (inactive). Moreover, the GI50 in experiment [16] is 40.8 µM (inactive); in [5], > 100 µM (inactive); in [6] it was > 100 µM (inactive); in [17] it was > 53.6 µM (inactive); in experiment [7] it was > 100 µM (inactive); in experiment [8] it was > 100 µM (inactive). The GI50 is > 100 µM (inactive) in [9]; > 100 µM (inactive) in experiment [18]; > 100 µM (inactive) in experiment [10]; > 100 µM (inactive) in experiment [19]; 13.4 µM (inactive) in experiment [20]; > 100 µM (inactive) in experiment [11]. Besides, the GI50 in experiment [12] was > 100 µM (inactive).

Regarding `CCCCCCCCCCCCCCCC(=O)OCC(C[As](=O)(O)O)OC(=O)CCCCCCCCCCCCCCC` (centres undefined), the GI50 was > 84.5 µM (inactive) in experiment [1]; > 100 µM (inactive) in [13]; above 66.5 µM in [14]; > 100 µM (inactive) in experiment [3]; > 100 µM (inactive) in experiment [15]; > 100 µM (inactive) in experiment [4]. Also, the GI50 in [16] is > 100 µM (inactive); in [5], > 74.8 µM (inactive); in [6], > 100 µM (inactive); in [17], > 100 µM (inactive); in experiment [7], > 100 µM (inactive); in experiment [8] it was > 100 µM (inactive). Also, the GI50 in experiment [9] was > 100 µM (inactive); in experiment [18] it was > 68.1 µM (inactive); in [10] it was 68.9 µM (inactive); in experiment [19], > 100 µM (inactive); in [20] it was > 100 µM (inactive); in [11], > 66.5 µM (inactive). The GI50 in [12] is > 100 µM (inactive).
